Data taken from patent US20220356174A1, “PYRIDIN-2-ONE COMPOUNDS USEFUL AS SMARCA2 ANTAGONISTS” (Epizyme, Inc., priority 2018, published 2022).
pIC50: −log10 of the molar value. Like-named read-outs stand apart in the source and are kept apart here.

Columns and labels:
FL-SMARCA4 = FL-SMARCA4 (Homo sapiens, UniProt P51532); experiment: SMARCA4 ATPase activity assay (ADP-Glo, chicken mononucleosome substrate)
[1] = target: T1, FL-SMARCA2 (full-length human SMARCA2 isoform 1) (Homo sapiens, UniProt P51531); experiment: SMARCA2 ATPase activity assay (ADP-Glo, chicken mononucleosome substrate); format: biochemical; conditions: ATP 250 uM
T1 construct: FLAG tag (YKDDDDK) (C); made in house; host or cells: Sf21 insect cells (baculovirus, pFastBacI)
Text: Molecular Biology: Full-length human SMARCA2 isoform 1 (P51531) transcript clone was amplified from a cDNA library incorporating an N-terminal HIS tag ([…]) fused directly to Ser2 of SMARCA2 and a C-FLAG tag (YKDDDDK) fused directly to Glu1590 of SMARCA2. The amplified gene was subcloned into pFastBacI (Life Technologies).
Protein Expression: Recombinant baculovirus were generated and protein over-expression was accomplished by infecting exponentially growing Sf21 insect cell culture at 1.24×10^6 cell/ml with an MOI of 0.1. Infections were carried out for 76 hours, harvested by centrifugation, and stored at −80° C. for purification.
Expressed full-length SMARCA2 was purified from cell paste by FLAG affinity chromatography followed by anion exchange chromatography. The protein was dialyzed into a storage buffer containing 25 mM HEPES, 300 mM KCl, 10% Glycerol, pH 7.9, 1 mM TCEP and 0.01% Tween-20. The purity of the protein was measured as 74% using micro-capillary based gel electrophoresis.

[2] = FL-SMARCA4 IC50, Table 3a.2, SMARCA4 5 nM, ATP 250 uM, mononucleosome 10 nM
[3] = Table 3a.1, SMARCA2 5 nM, mononucleosome 10 nM
[4] = FL-SMARCA4 IC50, Table 3b.2, SMARCA4 5 nM, ATP 250 uM, mononucleosome 10 nM
[5] = Table 3b.1, SMARCA2 5 nM, mononucleosome 10 nM
[6] = FL-SMARCA4 IC>50, Table 3c.2, ATPase assay, enzyme 5 nM, ATP 250 uM, chicken mononucleosome 10 nM, 30 min preincubation
[7] = Table 3c.1, ATPase assay, enzyme 5 nM, chicken mononucleosome 10 nM, 30 min preincubation
[8] = Table 3d.1, ATPase assay, enzyme 5 nM, chicken mononucleosome 10 nM, 30 min preincubation, read-out: FL-SMARCA2 IC>50
[9] = FL-SMARCA4 IC50, Table 3.2, ATPase assay, enzyme 5 nM, ATP 250 uM, chicken mononucleosome 10 nM, 30 min preincubation
[10] = Table 3.1, ATPase assay, enzyme 5 nM, chicken mononucleosome 10 nM, 30 min preincubation

T1 sequence (P51531 with tags, fused parts or gaps): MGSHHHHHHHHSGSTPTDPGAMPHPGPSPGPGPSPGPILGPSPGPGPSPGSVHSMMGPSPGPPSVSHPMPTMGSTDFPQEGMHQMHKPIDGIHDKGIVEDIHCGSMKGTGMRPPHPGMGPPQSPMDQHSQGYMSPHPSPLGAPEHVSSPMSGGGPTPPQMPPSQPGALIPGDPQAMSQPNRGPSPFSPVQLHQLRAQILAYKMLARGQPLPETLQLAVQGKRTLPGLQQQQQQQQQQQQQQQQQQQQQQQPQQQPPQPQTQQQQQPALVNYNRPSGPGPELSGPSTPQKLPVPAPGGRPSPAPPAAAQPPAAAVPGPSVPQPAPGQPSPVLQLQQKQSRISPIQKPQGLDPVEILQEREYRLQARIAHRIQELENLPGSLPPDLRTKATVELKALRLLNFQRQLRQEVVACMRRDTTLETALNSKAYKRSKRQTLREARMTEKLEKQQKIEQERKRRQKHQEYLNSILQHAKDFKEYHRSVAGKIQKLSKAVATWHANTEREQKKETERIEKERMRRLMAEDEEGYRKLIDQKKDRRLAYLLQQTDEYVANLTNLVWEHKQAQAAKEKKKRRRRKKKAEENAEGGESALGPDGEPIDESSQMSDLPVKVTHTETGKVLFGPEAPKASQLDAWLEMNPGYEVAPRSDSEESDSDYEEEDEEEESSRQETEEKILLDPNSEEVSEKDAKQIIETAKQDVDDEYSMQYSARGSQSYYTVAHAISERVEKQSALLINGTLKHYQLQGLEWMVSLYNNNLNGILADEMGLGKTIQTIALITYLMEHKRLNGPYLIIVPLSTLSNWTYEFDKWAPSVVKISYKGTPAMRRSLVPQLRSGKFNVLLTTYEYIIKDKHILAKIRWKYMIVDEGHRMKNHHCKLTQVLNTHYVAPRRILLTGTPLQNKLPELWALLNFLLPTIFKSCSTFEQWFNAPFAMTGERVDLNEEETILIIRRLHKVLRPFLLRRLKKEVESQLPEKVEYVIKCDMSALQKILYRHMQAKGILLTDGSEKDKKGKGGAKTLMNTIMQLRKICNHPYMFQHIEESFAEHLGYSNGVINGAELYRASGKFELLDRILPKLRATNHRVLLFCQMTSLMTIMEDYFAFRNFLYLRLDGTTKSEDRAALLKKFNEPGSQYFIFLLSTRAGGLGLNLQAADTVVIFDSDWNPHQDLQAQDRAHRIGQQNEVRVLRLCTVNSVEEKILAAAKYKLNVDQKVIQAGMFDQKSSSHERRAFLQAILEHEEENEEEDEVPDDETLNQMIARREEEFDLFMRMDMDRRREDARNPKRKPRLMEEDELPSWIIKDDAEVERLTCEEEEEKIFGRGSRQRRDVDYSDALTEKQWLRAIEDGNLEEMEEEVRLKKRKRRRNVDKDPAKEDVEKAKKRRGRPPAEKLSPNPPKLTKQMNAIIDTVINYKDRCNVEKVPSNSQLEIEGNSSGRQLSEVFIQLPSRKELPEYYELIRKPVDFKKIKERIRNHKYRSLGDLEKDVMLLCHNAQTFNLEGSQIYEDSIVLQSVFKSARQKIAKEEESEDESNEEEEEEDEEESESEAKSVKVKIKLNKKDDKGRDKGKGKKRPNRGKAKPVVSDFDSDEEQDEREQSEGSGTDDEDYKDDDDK
FL-SMARCA4, sequence (P51532 whole entry, canonical isoform): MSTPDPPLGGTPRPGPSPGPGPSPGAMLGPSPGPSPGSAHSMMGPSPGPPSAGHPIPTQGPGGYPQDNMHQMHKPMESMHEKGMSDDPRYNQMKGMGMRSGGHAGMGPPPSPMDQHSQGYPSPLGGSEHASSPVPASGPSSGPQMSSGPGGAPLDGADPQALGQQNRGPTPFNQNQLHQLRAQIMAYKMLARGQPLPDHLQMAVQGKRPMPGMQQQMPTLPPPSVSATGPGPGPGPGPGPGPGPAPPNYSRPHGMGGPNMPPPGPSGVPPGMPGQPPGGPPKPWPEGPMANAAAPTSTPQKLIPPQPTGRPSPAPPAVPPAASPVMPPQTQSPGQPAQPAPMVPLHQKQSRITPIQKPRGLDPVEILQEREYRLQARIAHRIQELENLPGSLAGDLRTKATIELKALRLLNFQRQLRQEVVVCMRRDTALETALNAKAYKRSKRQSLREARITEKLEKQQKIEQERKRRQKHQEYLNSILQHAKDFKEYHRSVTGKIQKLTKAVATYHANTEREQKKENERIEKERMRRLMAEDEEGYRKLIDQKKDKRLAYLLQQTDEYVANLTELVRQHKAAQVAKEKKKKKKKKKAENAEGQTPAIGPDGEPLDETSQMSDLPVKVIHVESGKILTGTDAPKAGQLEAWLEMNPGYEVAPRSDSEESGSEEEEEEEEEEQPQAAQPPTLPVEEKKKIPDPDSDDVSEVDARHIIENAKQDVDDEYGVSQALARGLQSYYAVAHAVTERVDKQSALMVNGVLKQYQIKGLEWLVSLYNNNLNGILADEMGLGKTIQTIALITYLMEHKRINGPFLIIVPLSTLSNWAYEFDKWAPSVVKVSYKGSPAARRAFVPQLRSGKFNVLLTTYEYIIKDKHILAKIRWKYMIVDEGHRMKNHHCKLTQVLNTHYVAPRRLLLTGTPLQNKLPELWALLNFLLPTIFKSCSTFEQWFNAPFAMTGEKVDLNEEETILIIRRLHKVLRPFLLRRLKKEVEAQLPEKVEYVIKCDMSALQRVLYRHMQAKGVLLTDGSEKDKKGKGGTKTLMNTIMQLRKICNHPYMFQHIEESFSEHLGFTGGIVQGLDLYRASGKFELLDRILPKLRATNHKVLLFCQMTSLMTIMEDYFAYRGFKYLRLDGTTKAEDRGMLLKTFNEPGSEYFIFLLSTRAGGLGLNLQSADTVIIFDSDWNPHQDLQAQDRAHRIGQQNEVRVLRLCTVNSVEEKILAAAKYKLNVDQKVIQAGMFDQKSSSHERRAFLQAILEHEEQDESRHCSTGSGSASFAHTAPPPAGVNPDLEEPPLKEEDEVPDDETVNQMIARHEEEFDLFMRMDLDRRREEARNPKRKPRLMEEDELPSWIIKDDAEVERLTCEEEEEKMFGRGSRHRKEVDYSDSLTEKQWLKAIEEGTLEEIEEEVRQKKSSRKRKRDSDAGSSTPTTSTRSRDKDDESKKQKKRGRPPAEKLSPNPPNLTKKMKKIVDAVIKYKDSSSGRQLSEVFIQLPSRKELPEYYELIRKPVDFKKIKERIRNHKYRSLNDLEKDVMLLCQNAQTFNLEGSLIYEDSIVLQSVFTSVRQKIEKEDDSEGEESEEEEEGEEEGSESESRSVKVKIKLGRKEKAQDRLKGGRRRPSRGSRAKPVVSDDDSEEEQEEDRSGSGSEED

COc1ccc2[nH]c(C(=O)Nc3c[nH]c(=O)c(C)c3)cc2c1 [Compound 8a]
pIC50 (FL-SMARCA4; [2]): < 4.30
pIC50 [1, 3]: < 4.30

CCn1cc(NC(=O)c2ccc(F)c(Cl)c2)ccc1=O [Compound 8b]
pIC50 (FL-SMARCA4; [4]): < 4.30
pIC50 [1, 5]: < 4.30

C[S+]([O-])c1cc(NC(=O)c2cc(F)c(Cl)s2)cn(CC(F)F)c1=O (centres unmarked) [Compound 8c]
pIC50 (FL-SMARCA4; [6]): < 4.30
pIC50 [1, 7]: < 4.30

Cc1cc(=O)n(C)cc1NC(=O)[C@@H]1CNC[C@H]1C(F)(F)F [Compound 8d]
pIC50 (FL-SMARCA4; FL-SMARCA4 IC50): < 4.30
pIC50 [1, 8]: < 4.30

COCCn1cc(NC(=O)c2cnn(-c3ccccc3C)c2C)ccc1=O [Compound 9]
pIC50 (FL-SMARCA4; [9]): < 4.30
pIC50 [1, 10]: < 4.30

CO[C@@H]1CN[C@H](C(=O)Nc2cc(Br)c(=O)n(C)c2)C1 [Compound 9a]
pIC50 (FL-SMARCA4; [2]): < 4.30
pIC50 [1, 3]: < 4.30

CCn1cc(NC(=O)c2ccc(Cl)c(F)c2)ccc1=O [Compound 9b]
pIC50 (FL-SMARCA4; [4]): < 4.30
pIC50 [1, 5]: 4.36

O=C(Nc1cc(F)c(=O)n(CC(F)F)c1)c1cc(C#CC2CNC2)c(Cl)s1 [Compound 9c]
pIC50 (FL-SMARCA4; [6]): 5.11
pIC50 [1, 7]: 5.54

CCn1cc(NC(=O)CC2CCOCC2)ccc1=O [Compound 9d]
pIC50 (FL-SMARCA4; FL-SMARCA4 IC50): < 4.30
pIC50 [1, 8]: < 4.30

CCn1cc(NC(=O)c2cc(C(C)C)n(-c3ccccn3)n2)ccc1=O [Compound 10]
pIC50 (FL-SMARCA4; [9]): < 4.30
pIC50 [1, 10]: < 4.30

CO[C@H]1C[C@@H](C(=O)Nc2ccc(=O)n(C)c2)N(C)C1 [Compound 10a]
pIC50 (FL-SMARCA4; [2]): < 4.30
pIC50 [1, 3]: < 4.30

CCn1cc(NC(=O)c2cccc(Cl)c2F)ccc1=O [Compound 10b]
pIC50 (FL-SMARCA4; [4]): < 4.30
pIC50 [1, 5]: < 4.30

CC(C)(C)OC(=O)N1CC(C#Cc2cc(C(=O)Nc3cc(F)c(=O)n(CC(F)F)c3)sc2Cl)C1 [Compound 10c]
pIC50 (FL-SMARCA4; [6]): 5.15
pIC50 [1, 7]: 5.47

CCn1cc(NC(=O)c2cnc3ccccn23)ccc1=O [Compound 19a]
pIC50 [1, 3]: < 4.30

CCn1cc(NC(=O)c2cc(C)oc2C)ccc1=O [Compound 23]
pIC50 (FL-SMARCA4; [9]): < 4.30

CCn1cc(NC(=O)c2cc(C3CC3)on2)ccc1=O [Compound 24]
pIC50 (FL-SMARCA4; [9]): < 4.30

CCn1cc(NC(=O)c2csc(C(F)(F)F)n2)ccc1=O [Compound 25]
pIC50 (FL-SMARCA4; [9]): < 4.30

CCn1cc(NC(=O)c2cc(C)n[nH]2)ccc1=O [Compound 27]
pIC50 (FL-SMARCA4; [9]): < 4.30

CCn1cc(NC(=O)c2cn(C)nc2C(F)F)ccc1=O [Compound 28]
pIC50 (FL-SMARCA4; [9]): < 4.30

CCn1cc(NC(=O)c2csnn2)ccc1=O [Compound 29]
pIC50 (FL-SMARCA4; [9]): < 4.30

CCn1cc(NC(=O)c2nc(Br)cs2)ccc1=O [Compound 30]
pIC50 (FL-SMARCA4; [9]): < 4.30

CCn1cc(NC(=O)c2cn(C)nc2C(F)(F)F)ccc1=O [Compound 31]
pIC50 (FL-SMARCA4; [9]): < 4.30

CCn1cc(NC(=O)c2snc(Cl)c2Cl)ccc1=O [Compound 34]
pIC50 [1, 10]: 4.55

Cn1c(C(=O)Nc2ccc(=O)n(C3CC3)c2)cc(Cl)c1Cl [Compound 41]
pIC50 [1, 10]: < 4.30

CCn1c(C(=O)Nc2ccc(=O)n(CC)c2)cc(Cl)c1Cl [Compound 42]
pIC50 [1, 10]: 4.90

CCn1cc(NC(=O)c2cc(Br)cs2)ccc1=O [Compound 45]
pIC50 [1, 10]: 4.37

CCn1cc(NC(=O)c2ccc(I)s2)ccc1=O [Compound 46]
pIC50 [1, 10]: 4.95

CCn1cc(NC(=O)c2ncc(Br)s2)ccc1=O [Compound 49]
pIC50 [1, 10]: < 4.30

O=C(Nc1ccc(=O)n(-c2ccccc2)c1)c1ccc(Br)s1 [Compound 50]
pIC50 [1, 10]: < 4.30

N[C@H]1CC[C@H](C#Cc2cc(C(=O)Nc3cc(F)c(=O)n(CC(F)F)c3)sc2Cl)CC1 [Compound 66d]
pIC50 (FL-SMARCA4; FL-SMARCA4 IC50): 5.89

CCn1cc(NC(=O)c2cnc(Cl)[nH]2)ccc1=O [Compound 99]
pIC50 [1, 10]: < 4.30

CCn1cc(NC(=O)c2cc(Cl)n(C)n2)ccc1=O [Compound 100]
pIC50 [1, 10]: < 4.30

O=C(O)c1cccc(C#Cc2cc(C(=O)Nc3cc(F)c(=O)n(CC(F)F)c3)ccn2)c1 [Compound 132c]
pIC50 (FL-SMARCA4; [6]): 4.95

N#Cc1cc(C(=O)Nc2cc(C#N)c(=O)n(CCF)c2)sc1Cl [Compound 321]
pIC50 (FL-SMARCA4; [9]): 6.20
